Measured values reported in patent US9579406B2, “Phospholipid ether analogs as agents for detecting and locating cancer, and methods thereof” (Cellectar, Inc., priority 2004, dated 2017).
“Also recorded” adds a separate entry of the source.

Assays:
[1] = tested on: SCC1 and SCC6 squamous cell tumors; assay: SCC1 and SCC6 xenografts in nude mice, single injection; format: in vivo
Source text: Due to its 60-day physical half-life and low energy 35 KeV photon emission, iodine-125 is suitable for imaging experiments in mice and rats. Iodine-125 also affords therapeutic characteristics. In one imaging experiment (FIG. 6), 2 nude mice were each inoculated with subcutaneous squamous cell lines SCC1 and SCC6 tumor cell implants on opposing flanks. SCC1 and SSC6 cells were used because one is radiosensitive relative to the other. After 14 days when the average tumor size was approaching 0.5 cm in diameter, one of the mice received 20 μCi of I-125-NM-404 and the other one receive unlabeled NM404 in an equal mass dose. The mouse receiving the unlabeled cold compound had to be euthanized 20 days after injection due to both tumors reaching the termination size limit as defined in the animal use protocol. […] This mouse never did reach terminal tumor size and the mouse was actually euthanized after 90 days in order to collect histology sections.

Lung NCI H-69 (Oat Cell) = assay: Tumor models examined with NM404 (Table 2); format: in vivo, Nude Mouse; settings: Small cell carcinoma
Source text: (§1) NM404 has now been evaluated in 27 animal tumor models, including several lung, and it is clear that once the agent enters tumor cells, it reaches a metabolic dead end and becomes trapped. […] NM404 is also retained in spontaneous murine lung tumors (FIG. 13). Using ^125I-labeled NM404, the inventors have been able to image mammary and prostate tumors in mice in excess of 60 days. […] Imaging and tissue distribution studies performed in mouse models aimed at determining the uptake characteristics in a wide variety of tumor models are summarized in Table 2.
(§2) Although tumor retention can be explained by a lack of metabolic phospholipase enzymes in the tumor cell membranes, the exact mechanism of tumor cell uptake is unknown. […] The inventors are currently evaluating the selectivity of NM404 in a unique mouse tumor model developed at Wisconsin, wherein both preneoplastic hyperplasias and malignant adenocarcinomas form spontaneously in the mammary gland. […] If this initial observation is validated, then via genomic and or proteomic analysis the inventors may be able to identify a key genetic difference between malignant tumors and their non malignant predecessor cells. This could identify a completely new molecular therapeutic target that may be universal for all types of cancer.

Colon LS-180 = assay: Tumor models examined with NM404 (Table 2); format: in vivo, Nude Mouse; settings: Adenocarcinoma
Source text: as §1, §2

Ovarian HTB-77 = assay: Tumor models examined with NM404 (Table 2); format: in vivo, Nude Mouse; settings: Adenocarcinoma
Source text: as §1, §2

Melanoma A-375 = assay: Tumor models examined with NM404 (Table 2); format: in vivo, Nude Mouse
Source text: as §1, §2

[2] = Acute GLP toxicology, single iv dose, 14 days observation, rats; format: in vivo; settings: female rats
Lung A-549 (NSCC) = assay: Tumor models examined with NM404 (Table 2); format: in vivo, SCID Mouse; settings: Adenocarcinoma
Source text: as §1, §2

Adrenal H-295 = assay: Tumor models examined with NM404 (Table 2); format: in vivo, SCID Mouse; settings: Adenocarcinoma
Source text: as §1, §2

Adrenal RL-251 = assay: Tumor models examined with NM404 (Table 2); format: in vivo, SCID Mouse; settings: Adenocarcinoma
Source text: as §1, §2

Prostate PC-3 = assay: Tumor models examined with NM404 (Table 2); format: in vivo, SCID Mouse; settings: Adenocarcinoma
Source text: as §1, §2

[3] = tested on: A549 (human non-small cell lung cancer); assay: Radiotherapy study in A549 SCID mouse xenograft model; format: in vivo
Description: Stimulated by these and other observations, the inventors recently conducted a small ^125I-NM404 pilot therapy study in SCID mice with human A549 lung tumor xenografts. ^125I-NM404 was administered as either a single dose or alternatively in 3 doses (once a week for 3 weeks) to groups of 6 mice and a separate cohort received an equivalent mass dose of unlabeled NM404 for comparison. Single doses were 50 or 500 μCi and the repeat dose group received a total of 3 weekly 50 μCi doses. Tumor growth was monitored for 10 weeks following final injection. […] New arms are now being initiated to cover the dose levels between the current ones in order to more accurately evaluate the therapeutic potential of this agent.
A549 (human non-small cell lung cancer, NSCLC, from ATCC) are maintained in Ham's F-12K media supplemented with 10% fetal bovine serum. […]. Animals are given free access to food and water, tumor growth and animal weight are monitored. […].
The tumor model used for this study was A549, a human non-small cell lung cancer, (NSCLC) obtained from ATCC (Manassas, Va.). The tumor cells are maintained in Ham's F-12K media supplemented with 10% fetal bovine serum. […]. Animals are given free access to food and water. Upon reaching 5-10 mm in tumor diameter, mice will be enrolled in the study.
A single intravenous injection of SF404A was performed at Day 0. For the control group, cold compound (C-NM404) has been injected. For treatment groups I-125-NM404 has been injected.
The study contained 5 groups; 4 treatment groups (n=6/group) and 1 control group (n=9). The iodine doses for the treatment groups were 50, 150, 250 and 500 μCi per mouse. The control group was dosed with an equivalent mass amount of C-NM404 (0 μCi).
Assessments were made until 10 weeks post-injection or until no animal in the control group is alive, whatever comes first. […]

[4] = tested on: xenograft and spontaneous tumor models; assay: Imaging and tissue distribution across preclinical animal tumor models; format: in vivo

## C[N+](C)(C)CCOP(=O)([O-])OCCCCCCCCCCCCCCCCCCc1ccc(I)cc1 [NM-404, 18-(4-iodophenyl)-octadecylphosphocholine]
[1]; unlabeled, equal mass dose
  time to euthanasia due to both tumors reaching termination size limit: 20 days
Lung NCI H-69 (Oat Cell)
  NM404 Tumor Localization: Yes (Localization defined as >5% injected dose per gram tumor basis based on tissue distribution data)
Colon LS-180
  NM404 Tumor Localization: Yes (Localization defined as >5% injected dose per gram tumor basis based on tissue distribution data)
Ovarian HTB-77
  NM404 Tumor Localization: Yes (Localization defined as >5% injected dose per gram tumor basis based on tissue distribution data)
Melanoma A-375
  NM404 Tumor Localization: Yes (Localization defined as >5% injected dose per gram tumor basis based on tissue distribution data)
[2]
  adverse effects: no adverse effects attributable to the test article were noted
[2]; 0.04 mg/kg (Study 31)
  toxic effects: no significant toxic effects were noted
Lung A-549 (NSCC)
  NM404 Tumor Localization: Yes (Localization defined as >5% injected dose per gram tumor basis based on tissue distribution data)
Adrenal H-295
  NM404 Tumor Localization: Yes (Localization defined as >5% injected dose per gram tumor basis based on tissue distribution data)
Adrenal RL-251
  NM404 Tumor Localization: Yes (Localization defined as >5% injected dose per gram tumor basis based on tissue distribution data)
Prostate PC-3
  NM404 Tumor Localization: Yes (Localization defined as >5% injected dose per gram tumor basis based on tissue distribution data)
[3]; 0 μCi, equivalent mass dose, 10 weeks
  effect on tumor growth: no substantial effect on tumors growth
[3]; 3×50 micro-Ci versus single 150 micro-Ci
  therapy effect of fractionated dosing versus single dose: produced the same therapy effect
[3]; Control 0 μCi (n = 7), week 0
  average tumor volume: 1152 mm^3
[3]; Control 0 μCi, week 1
  average tumor volume: 1289 mm^3
[3]; Control 0 μCi, week 2
  average tumor volume: 1667 mm^3
[3]; Control 0 μCi, week 3
  average tumor volume: 2418 mm^3
[3]; Control 0 μCi, week 4
  average tumor volume: 3169 mm^3
[3]; Control 0 μCi, week 5
  average tumor volume: 3763 mm^3
[3]; Control 0 μCi, week 6
  average tumor volume: 4971 mm^3
[3]; Control 0 μCi, week 7
  average tumor volume: 6207 mm^3
[3]; Control 0 μCi, week 8
  average tumor volume: 6253 mm^3
[3]; Control 0 μCi, week 9
  average tumor volume: 7175 mm^3
[3]; Control 0 μCi, week 10
  average tumor volume: 7068 mm^3
[4]; in vivo
  uptake of injected dose into the tumor tissue: 10-25%
[4]; preclinical models
  localization in infectious / inflammatory sites: does not localize in infectious sites; also recorded: is not retained in inflammatory tissues
  retention in normal, premalignant or hyperplastic tissues: is not retained in normal, premalignant, or hyperplastic tissues

## C[N+](C)(C)CCOP(=O)([O-])OCCCCCCCCCCCCCCCCCCc1ccc([125I])cc1 [Compound I-125-NM404]
[1]; single injection 20 μCi, listed as 125I-NM404
  tumor response: regressed significantly; also recorded: regressed dramatically; also recorded: significantly reduced
[3]; 50-500 μCi
  dose relationship of effect on tumor volume: dose-linear effect
[3]; 50 μCi (n = 4), week 0
  average tumor volume: 198 mm^3
[3]; 50 μCi single injection, 10 weeks
  treatment effect on tumor volume: did not show any difference to control animals
[3]; 50 μCi, week 1
  average tumor volume: 599 mm^3
[3]; 50 μCi, week 2
  average tumor volume: 691 mm^3
[3]; 50 μCi, week 3
  average tumor volume: 987 mm^3
[3]; 50 μCi, week 4
  average tumor volume: 2283 mm^3
[3]; 50 μCi, week 5
  average tumor volume: 3977 mm^3
[3]; 50 μCi, week 6
  average tumor volume: 4951 mm^3
[3]; 50 μCi, week 7
  average tumor volume: 6999 mm^3
[3]; 50 μCi, week 8
  average tumor volume: 8188 mm^3
[3]; 50 μCi, week 9
  average tumor volume: 9978 mm^3
[3]; 50 μCi, week 10
  average tumor volume: 8342 mm^3
[3]; 150 microCi, large tumors (>1 cm)
  tumor growth: did not show any effects
[3]; 150 microCi, small tumors (<1 cm)
  tumor growth: stunned tumor growth
[3]; 150 μCi (n = 5), week 0
  average tumor volume: 1699 mm^3
[3]; 150 μCi, week 1
  average tumor volume: 1847 mm^3
[3]; 150 μCi, week 2
  average tumor volume: 2430 mm^3
[3]; 150 μCi, week 3
  average tumor volume: 2758 mm^3
[3]; 150 μCi, week 4
  average tumor volume: 4144 mm^3
[3]; 150 μCi, week 5
  average tumor volume: 4478 mm^3
[3]; 150 μCi, week 6
  average tumor volume: 4668 mm^3
[3]; 150 μCi, week 7
  average tumor volume: 4817 mm^3
[3]; 150 μCi, week 8
  average tumor volume: 6049 mm^3
[3]; 150 μCi, week 9
  average tumor volume: 7780 mm^3
[3]; 150 μCi, week 10
  average tumor volume: 6894 mm^3
[3]; 250 μCi (n = 6), week 0
  average tumor volume: 360 mm^3
[3]; 250 μCi single injection
  treatment effect on tumor volume: substantial and prolonged treatment effect
[3]; 250 μCi, 4 weeks following injection
  effect on the tumor: causes central necrosis
[3]; 250 μCi, week 2
  average tumor volume: 756 mm^3
[3]; 250 μCi, week 3
  average tumor volume: 821 mm^3
[3]; 500 μCi (n = 5), week 0
  average tumor volume: 1041 mm^3
[3]; 500 μCi dose
  signs of toxicity: none of the mice showed any signs of toxicity
[3]; 500 μCi single injection
  treatment effect on tumor volume: substantial and prolonged treatment effect
[3]; 500 μCi, week 1
  average tumor volume: 964 mm^3
[3]; 500 μCi, week 2
  average tumor volume: 1281 mm^3
[3]; 500 μCi, week 3
  average tumor volume: 1110 mm^3
[3]; 500 μCi, week 4
  average tumor volume: 1300 mm^3
[3]; 500 μCi, week 5
  average tumor volume: 1626 mm^3
[3]; 500 μCi, week 6
  average tumor volume: 1735 mm^3
[3]; 500 μCi, week 7
  average tumor volume: 1697 mm^3
[3]; pilot study, single 500 μCi dose
  tumor growth: significant regression in tumor growth
[4]; mammary and prostate tumors in mice
  time over which tumors could be imaged: > 60 days
[4]; mice
  period of prolonged tumor retention post-injection: 20 to 60 days
